Test results as given in ChEMBL document CHEMBL1201862, “PubChem BioAssay data set” (2004).
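Cells were grown in 96-well plates and exposed to each compound for 48 hours at five concentrations; endpoints were interpolated linearly between bracketing concentrations, or set to the highest concentration if not reached. The concentration for 50% growth inhibition is given as GI50.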 Calls of active or inactive are those of the source. Rule as the data show it: active = GI50 up to about 1.1 µM and inactive = higher.

Columns and labels:
Test in all cases: DTP human tumour cell line panel, 48 h
[1] = test system: NCI-H23
[2] = test system: HOP-62
[3] = test system: PC-3
[4] = test system: COLO 205
[5] = test system: SK-MEL-2
[6] = test system: BT-549
[7] = test system: Hs-578T
[8] = test system: HCT-15
[9] = test system: SF-268
[10] = test system: HOP-92
[11] = test system: UACC-257
[12] = test system: SF-295
[13] = test system: UACC-62
[14] = test system: SN12C
[15] = test system: T47D
[16] = test system: M19-MEL
[17] = test system: 786-0
[18] = test system: TK-10
[19] = test system: SK-MEL-5
[20] = test system: SW-620

Row | SMILES | GI50 [1] | GI50 [2] | GI50 [3] | GI50 [4] | GI50 [5] | GI50 [6] | GI50 [7] | GI50 [8] | GI50 [9] | GI50 [10] | GI50 [11] | GI50 [12] | GI50 [13] | GI50 [14] | GI50 [15] | GI50 [16] | GI50 [17] | GI50 [18] | GI50 [19] | GI50 [20]
1 | Cn1c2ccccc2c2ccc3c(c21)C(=O)C=CC3=O | 12.7 µM (inactive) | 28 µM (inactive) | 5.6 µM (inactive) | 2.43 µM (inactive) | 15.6 µM (inactive) | 6.98 µM (inactive) | 18.4 µM (inactive) | 4.56 µM | 14.8 µM (inactive) | 2.52 µM (inactive) | 9.48 µM (inactive) | 24.7 µM (inactive) | 12.1 µM (inactive) | 9.93 µM (inactive) | 3.27 µM (inactive) | 10.5 µM (inactive) | 4.27 µM (inactive) | 3.88 µM (inactive) | 15.2 µM (inactive) | 2.02 µM (inactive)
2 | O=C(Nc1nc2ccc([N+](=O)[O-])cc2s1)C(=O)C(C1OC(=O)c2ccccc21)[N+](=O)[O-] (stereo not drawn) | 55.2 µM (inactive) | 31.9 µM (inactive) |  | > 100 µM (inactive) | 41.5 µM (inactive) |  |  | 66.7 µM | 76.9 µM (inactive) | 20.4 µM (inactive) | > 100 µM (inactive) | 91.2 µM (inactive) | 65.8 µM (inactive) | 75 µM (inactive) |  | > 100 µM (inactive) | > 100 µM (inactive) | 69.2 µM (inactive) | 64.6 µM (inactive) | > 100 µM (inactive)
3 | CC(C(=O)[O-])S(=O)(=O)O.CCc1c2cc(OC)c(OC)cc2cc2c3cc(OC)c(OC)cc3cc[n+]12 | 15.9 µM (inactive) | 41.7 µM (inactive) | 17.9 µM (inactive) | 4.78 µM (inactive) | 25.6 µM (inactive) | 3.81 µM (inactive) | 4.81 µM (inactive) | 38.4 µM | 1.11 µM (active) | 29 µM (inactive) | 13.3 µM (inactive) | 67.3 µM (inactive) | 7.91 µM (inactive) | 6.62 µM (inactive) | 5.11 µM (inactive) | 13.6 µM (inactive) | 36.9 µM (inactive) | 69.7 µM (inactive) | 15.3 µM (inactive) | 26.5 µM (inactive)
4 | COc1ccc(-c2cc(=O)c3ccccc3o2)cc1N | 38.5 µM (inactive) | 20.5 µM (inactive) |  | 33.4 µM (inactive) | 37.2 µM (inactive) |  |  | 46.6 µM | 25.7 µM (inactive) | 76.2 µM (inactive) | 51.3 µM (inactive) | 41.7 µM (inactive) | 25.8 µM (inactive) | 84.7 µM (inactive) |  | 86.1 µM (inactive) | > 100 µM (inactive) | > 100 µM (inactive) | 25.8 µM (inactive) | 38.4 µM (inactive)
5 | CCCC(=O)OC[n+]1ccc2c(C)c3[nH]c4ccc(OC)cc4c3c(C)c2c1 | 0.347 µM (active) | 0.714 µM (active) |  | 0.427 µM (active) | 1.16 µM (inactive) |  |  | 0.288 µM | 0.313 µM (active) | 1.16 µM (inactive) | 2.08 µM (inactive) | 0.581 µM (active) | 1.06 µM (active) | 0.222 µM (active) |  | 0.555 µM (active) | 0.0953 µM (active) | 2.9 µM (inactive) | 1.19 µM (inactive) | 0.0692 µM (active)
